# According to patent publication US20190290729A1, “PHARMACEUTICAL ASSOCIATION OF GROWTH FACTOR RECEPTOR AGONIST AND ADHESION PROTEIN INHIBITOR FOR CONVERTING A NEOPLASTIC CELL INTO A NON-NEOPLASTIC CELL AND USES THEREOF” (HISTIDE AG, priority 2015, published 2019):
# Where no end group is shown, it is not given here.
# System: osteosarcoma cells
# Experiment: Immunofluorescence of cell adhesion and morphology on grafted polymer scaffolds (actin, vinculin, DAPI)
# Format: cell-based
# Details: polymer scaffold covalently modified with mixture of GFR-binding compound and RGD peptide, 24 hours of culture
# Protocol: FIG. 9 is (a) a representation of a Quantitative Real Time PCR analysis of the expression of DMP-1, SCT and RANK-L in neoplastic cells (osteosarcoma cells) cultured on a native polymer scaffold (control) and on a polymer scaffold grafted with a mixture comprising a GFR-binding compound as defined in the present disclosure and a RGD peptide, after 24 hours of culture, (b) immunofluorescence staining of a representative neoplastic cell (osteosarcoma cells) cultured on a polymer scaffold grafted with a mixture comprising a GFR-binding compound as defined in the present disclosure (ID SEQ NO: 2) and a RGD peptide, after 24 hours of culture. The actin filaments were immunostained by using Alexa 488-phalloidin. The focal adhesions were represented by immunostaining with anti-vinculin. The nucleus was stained with DAPI and is represented by a circle in the center of the cell. Scale bar: 5 μm. (c) is a diagram representing the grafting density of a radiolabeled GFR-binding compound as defined in the present disclosure covalently grafted on a polymer scaffold and of a radiolabeled GFR-binding compound and a non-labeled RGD peptide both grafted on a polymer scaffold. The measurements were performed by using radioactivity quantification (no significant difference was observed). […]
substance,measurement,value
"SEQ ID NO: 2: GFR-binding compound as defined in the present disclosure, grafted with a RGD peptide on a polymer scaffold (KVGKASSAPTKLSAISMLYLDDMGVPTLKNYQNMVVR; also: grafted with RGD peptide on polymer scaffold)",morphology of neoplastic cells (immunofluorescence),Spheroid-like structures of neoplastic cells become predominant
